The record followed here is US10272087B2, “Pteridines as FGFR inhibitors” (ASTEX THERAPEUTICS LIMITED, priority 2012, dated 2019).

Experiment [1] has as its target KDR (h) (VEGFR2) (Homo sapiens (Human), UniProt P35968). Nature of the experiment: KDR (VEGFR2) (enzymatic assay), TR-FRET. The class given is biochemical. Particulars: 3 μM ATP; read-out: VEGFR KDR pIC50 (converted).
The test system of experiment [2] is Ba/F3-FGFR4-transfected cells. Nature of the experiment: cells. The settings on record: read-out: BAF3-FGFR4 (pIC50) (converted).
Experiment [3] deals with Ba/F3-FGFR1-transfected cells. The experiment in a line: cells. The settings on record: read-out: BAF3-FGFR1 (MIN IL3 pIC50) (converted).
The test system of experiment [4] is Ba/F3-KDR-transfected cells. The experiment in a line: cells. The settings on record: read-out: BAF3-KDR (MIN IL3 pIC50) (converted).

KDR (h) (VEGFR2), sequence (P35968 20-1356): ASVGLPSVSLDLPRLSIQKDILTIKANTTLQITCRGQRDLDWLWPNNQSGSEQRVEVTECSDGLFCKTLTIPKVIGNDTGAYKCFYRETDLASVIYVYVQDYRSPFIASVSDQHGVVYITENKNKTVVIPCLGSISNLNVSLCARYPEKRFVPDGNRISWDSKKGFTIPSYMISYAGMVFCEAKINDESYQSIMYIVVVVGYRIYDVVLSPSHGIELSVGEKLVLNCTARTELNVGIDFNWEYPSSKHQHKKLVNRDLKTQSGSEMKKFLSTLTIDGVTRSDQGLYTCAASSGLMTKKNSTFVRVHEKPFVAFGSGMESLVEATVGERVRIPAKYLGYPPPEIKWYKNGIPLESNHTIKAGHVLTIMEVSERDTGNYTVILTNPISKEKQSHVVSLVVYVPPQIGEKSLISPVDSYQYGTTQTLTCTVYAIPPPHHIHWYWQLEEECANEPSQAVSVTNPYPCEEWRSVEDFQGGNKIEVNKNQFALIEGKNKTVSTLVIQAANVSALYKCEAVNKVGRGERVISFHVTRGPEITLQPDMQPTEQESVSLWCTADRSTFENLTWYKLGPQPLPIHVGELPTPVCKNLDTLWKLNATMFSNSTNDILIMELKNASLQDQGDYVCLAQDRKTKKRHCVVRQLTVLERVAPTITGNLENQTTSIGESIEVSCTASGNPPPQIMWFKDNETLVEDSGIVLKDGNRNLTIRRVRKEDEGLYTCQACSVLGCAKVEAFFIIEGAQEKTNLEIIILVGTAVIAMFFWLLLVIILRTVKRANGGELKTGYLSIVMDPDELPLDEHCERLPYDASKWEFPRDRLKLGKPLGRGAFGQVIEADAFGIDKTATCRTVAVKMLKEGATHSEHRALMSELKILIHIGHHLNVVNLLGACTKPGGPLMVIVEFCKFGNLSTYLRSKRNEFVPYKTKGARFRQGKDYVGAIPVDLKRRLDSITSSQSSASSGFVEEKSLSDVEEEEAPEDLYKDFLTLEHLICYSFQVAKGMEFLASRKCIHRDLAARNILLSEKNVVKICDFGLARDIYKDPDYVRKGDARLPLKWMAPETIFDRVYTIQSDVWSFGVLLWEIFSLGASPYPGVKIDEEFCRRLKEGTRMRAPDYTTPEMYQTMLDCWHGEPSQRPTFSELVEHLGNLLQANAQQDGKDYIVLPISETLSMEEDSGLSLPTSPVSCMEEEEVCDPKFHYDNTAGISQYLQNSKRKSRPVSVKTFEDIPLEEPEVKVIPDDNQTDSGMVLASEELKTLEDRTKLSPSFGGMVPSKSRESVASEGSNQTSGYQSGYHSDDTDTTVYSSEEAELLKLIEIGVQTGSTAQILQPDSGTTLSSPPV

With `COc1cc(OC)c(F)c(N(Cc2nccn2S(=O)(=O)N(C)C)c2ncc3ncc(-c4cnn(C)c4)nc3n2)c1F` [Compound 1], in experiment [1], the IC50 is 100 nM.

As to `COc1cc(OC)c(F)c(N(Cc2ncc[nH]2)c2ncc3ncc(-c4cnn(C)c4)nc3n2)c1F` [Compound 2], the IC50 was 25.1 nM in experiment [1], 25.1 nM in experiment [2] and 6.31 nM in experiment [3].

Turning to `COc1cc(OC)cc(N(CCO)c2ncc3ncc(-c4cnn(C)c4)nc3n2)c1` [Compound 3], the IC50 in experiment [4] was greater than 10000 nM; in experiment [1] it was greater than 1000 nM.

On to `COc1cc(OC)cc(N(CCO)c2ncc3ncc(-c4ccccc4)nc3n2)c1` [Compound 4], for which, in experiment [4], the IC50 was greater than 10000 nM.

Consider `COc1cc(OC)cc(N(CC2CC2)c2ncc3ncc(-c4ccccc4)nc3n2)c1` [Compound 7], for which the IC50 was greater than 10000 nM in experiment [4] and greater than 1000 nM in experiment [1].

With `COc1cc(OC)c(F)c(N(C[C@@H]2CCC(=O)N2)c2ncc3ncc(-c4cnn(C)c4)nc3n2)c1F` [Compound 8], the values for the IC50 in experiment [4] and in experiment [1] were greater than 10000 nM and 794 nM, respectively.

On to `CNCCN(c1ncc2ncc(-c3cnn(C)c3)nc2n1)c1c(F)c(OC)cc(OC)c1F` [Compound 9], for which the results for the IC50 in experiment [4] and in experiment [1] were 2510 nM and 398 nM, respectively.

As to `COc1cc(OC)c(F)c(N(C[C@H]2CCC(=O)N2)c2ncc3ncc(-c4cnn(C)c4)nc3n2)c1` [Compound 10], in experiment [1], the IC50 is 1000 nM.

For the compound `COc1cc(OC)c(F)c(N(C[C@@H]2CCC(=O)N2)c2ncc3ncc(-c4cnn(C)c4)nc3n2)c1` [Compound 11], the IC50 in experiment [1] was greater than 1000 nM.

Consider `COc1cc(OC)c(F)c(N(Cc2ncc[nH]2)c2ncc3ncc(-c4cnn(C)c4)nc3n2)c1` [Compound 13], for which, in experiment [1], the IC50 was 251 nM.
